# Results reported in US20220235328A1, “HUMAN DISEASED AND NORMAL KIDNEY EPITHELIAL CELL CULTURES AND USES THEREOF” (DISCOVERYBIOMED, INC., priority 2019, published 2022).
# Columns and labels:
# [1] = tested on: Immortal Human ADPKD Cell Line; assay: TEER of cell monolayers pre- and post-amiloride; type: cell-based; conditions: amiloride treatment
# Method: High-titer aliquots (10^9 pfu) of Lenti-SV40T, Lenti-hTERT-Neo and Lenti-CDK4 from Applied Biological Materials (ABM) (Richmond, BC, Canada) and Lenti-CDNK2 (Sigma-Aldrich) were diluted into transfection media to 10^7 pfu for cell challenge. In some cases, Lenti-hTERT and Lenti-CDK4 or Lenti-CDNK2 were combined as a newer immortalization method. huADPKD primary cultures were selected for immortalization based on a compelling genotype, an acceptable cell proliferation rate, and an ability to form cysts in 3D Matrigel culture. Mixed immortalized cultures were established by both methods from primary cultures where the lifetime of the cells were doubled from 5 passages (primary) to 10 passages (mixed immortal). The SV40T method was successful in generating immortal cell cultures that formed electrically tight polarized cell monolayers for transepithelial resistance (TEER) measurements and likely Ussing chamber-based electrophysiological recording of ion transport. These immortal human ADPKD cell monolayers may also be useful in fluid transport assays. Transepithelial/transendothelial electrical resistance (TEER) data for a new immortalized human ADPKD cell line are shown in Table 1 below.
# ADPKD cells = assay: AVP-stimulated cystogenesis, 384-well high-content imaging; type: cell-based, human; conditions: 14 days culture in the presence of AVP versus absence
# Method: Whole well automated high-content imaging was performed of ADPKD primary cells seeded in 384-well plates using the BioTek Cytation 5 system. Multiple well were captured per treatment. Uniform images were fed into deep learning algorithms for analysis. Stimuli like cAMP agonists and growth factors were not required, as the DBM RenalCyte media was sufficient to drive cystogenesis, as shown in FIG. 14.
# ADPKD cell cultures [2] = assay: Cyst prevention assay, 3D CellTiterGLO cell viability, CRC design; type: cell-based, human
# Method: In this assay, the ADPKD cell cultures were incubated on 4 days before 1 week of treatment with drugs, media only or DMSO only.
# ADPKD cell cultures [3] = assay: Cyst reduction assay, 3D CellTiterGLO cell viability, CRC design; type: cell-based, human
# Description: Results are shown in FIG. 26 for a cyst reduction assay.
# primary huADPKD cells [4] = assay: Cyst attack cystogenesis bioassay, cyst image tracking; type: cell-based, human; conditions: 3 μM
# Method: Primary cells capable of 3D cystogenesis were seeded as described above for the cyst prevention cytogenesis bioassay. In the cyst attack assay, cysts were allowed to develop to 12-24 in number and allowed to expand to a significant size. Specific cysts or cyst clusters were marked in each well. A test compound was then added to attack the already formed cysts to determine effects on the cysts. […] The timing of addition of the compound, frequency of addition of the compound and concentration of the compound varied.
# A prominent cyst was imaged before treatment and daily for 6 days after treatment began. This larger cyst increased by 2.5 to 3.0 fold in the presence of the industry standard drug, tolvaptan, a vasopressin receptor antagonist.
# primary huADPKD cells [5] = assay: Cyst prevention cystogenesis bioassay, 3D biogel, 48-well, light microscopy; conditions: for overt cell cytotoxicity: concentrations tested; for effect on cyst appearance and expansion: midway point and end of assay, various concentrations
# Method: Primary cells capable of 3D cystogenesis were seeded into a 3D biogel that is liquified before the gel sets. The gel set undisturbed within a humidified 5% CO2 incubator for 18 hours. An equal volume of DBM RenalCyte media was then overlaid in each well of a 48-well plate. “Add” feeds were performed until the well was full, and then half of the volume of media was removed and new media added at the same volume thereafter. […] In the cyst prevention assay, cysts were challenged as soon as they started to appear (small in dimension and few in number per well) with a test compound. The timing of addition of the test compound, frequency of addition of the test compound and concentration of the test compound varied. The effects on the cysts were followed by light-based microscopic imaging over time. In addition to visual inspection by light-based microscopic imaging occurring throughout the study, the number of cysts were counted per well at the end of the study and light-based endpoints were examined, such as 3D CellTiter-GLO® from Promega (Madison, Wis.) (to quantify viable cells), secretion (to quantify cell membrane integrity), and/or Caspase-GLO® (Promega) (to measure induction of apoptosis) in multiplex fashion. A modified version of this assay images after seeding the biogel each day for complete prevention of cyst formation versus counterpart controls over a 14 to 21-day period. Multiple replicates were performed, and cells from multiple donors were tested.
# [6] = Solubility limit noted in the cyst prevention assay; type: physicochemical
# [7] = tested on: primary human ADPKD cultures; assay: 384-well cyst attack assay, 3D CellTiterGLO cell viability; type: cell-based
# Method: (§1) A BioTek Cytation 5 (Biotek instruments, Winooski, Vt.) high content imaging and light-based high-throughput screening imaging system was used to image the huADPKD cells growing in 3D Biogels in 96-well and 384-well microliter plates. The Cytation 5 is coupled to a BioTek BioSpa 8 (a humidified CO2 incubator), such that trays can be extracted one at a time for analysis in the reader and then returned to the BioSpa.
# (§2) Concentrations of 30-1000 nM were tested for each, and data were expressed as percent viability versus DMSO control (n=12). […] Statistical analysis was performed using ANOVA.
# primary huADPKD cells [8] = assay: 384-well cyst prevention assay, percent viability versus DMSO control; type: cell-based, human
# Method: as §1
# While no drivers are required, they can be used if desired. Edge wells are filled with saline to mitigate edge effects
# Whole well automated high-content imaging was performed of ADPKD primary cells seeded in 384-well plates using the BioTek Cytation 5 system. Multiple well were captured per treatment. Uniform images were fed into deep learning algorithms for analysis.
# as §2
# [9] = from complete loss of viability signal
# [10] = incubated 4 days before 1 week of treatment
# [11] = incubated 10 days before 1 week of treatment
structure (smiles),measurement,setting,value
"N=C(N)NC(=O)c1nc(Cl)c(N)nc1N [Amiloride, amiloride]","change of transepithelial resistance, in words",[1],increase in resistance
"NC(=O)CC[C@@H]1NC(=O)[C@H](Cc2ccccc2)NC(=O)[C@H](Cc2ccc(O)cc2)NC(=O)[C@@H](N)CSSC[C@@H](C(=O)N2CCC[C@H]2C(=O)N[C@@H](CCCN=C(N)N)C(=O)NCC(N)=O)NC(=O)[C@H](CC(N)=O)NC1=O [Arginine Vasopressin (AVP), Arginine Vasopressin]",cyst size,ADPKD cells,more larger on average
CC(C)(CO)c1cc2cc(NC(=O)C3(c4ccc5c(c4)OC(F)(F)O5)CC3)c(F)cc2n1C[C@@H](O)CO [VX-661],IC50,"ADPKD cell cultures [2]; Homo sapiens, incubated 4 days before 1 week of treatment",10 µM
same,cytotoxicity,ADPKD cell cultures [2]; [9],overt cytotoxicity
same,"extent of inhibition, in words",ADPKD cell cultures [2]; [10],complete inhibition to no signal
same,IC50,"ADPKD cell cultures [3]; Homo sapiens, incubated 10 days before 1 week of treatment",30 µM
same,cytotoxicity,ADPKD cell cultures [3]; [9],overt cytotoxicity
same,"extent of inhibition, in words",ADPKD cell cultures [3]; [11],complete inhibition to no signal
Cc1ccc(NC(=O)C2(c3ccc4c(c3)OC(F)(F)O4)CC2)nc1-c1cccc(C(=O)O)c1 [VX-809],"extent of inhibition, in words",ADPKD cell cultures [2]; [10],only a partial effect and only at the highest concentration
same,"extent of inhibition, in words",ADPKD cell cultures [3]; [11],only a partial effect and only at the highest concentrations
COc1cc(Nc2c(C#N)cnc3cc(OCCCN4CCN(C)CC4)c(OC)cc23)c(Cl)cc1Cl [bosutinib],increase in size of a small cyst,primary huADPKD cells [4]; in 1-2 days,2 fold
same,overt cell cytotoxicity,primary huADPKD cells [5],no overt cell cytotoxicity
same,effect on cyst appearance and expansion,primary huADPKD cells [5],no effect
CO[C@H]1C[C@@H]2CC[C@@H](C)[C@@](O)(O2)C(=O)C(=O)N2CCCC[C@H]2C(=O)O[C@H]([C@H](C)C[C@@H]2CC[C@@H](O)[C@H](OC)C2)CC(=O)[C@H](C)/C=C(\C)[C@@H](O)[C@@H](OC)C(=O)[C@H](C)C[C@H](C)/C=C/C=C/C=C/1C [rapamycin],overt toxicity,primary huADPKD cells [4],not overtly toxic
same,solubility,[6],~30 µM
Cc1ccccc1C(=O)Nc1ccc(C(=O)N2CCCC(O)c3cc(Cl)ccc32)c(C)c1 (stereo not shown) [tolvaptan],"extent of inhibition, in words",ADPKD cell cultures [3]; [11],only a partial effect and only at the highest concentrations
same,inhibition at 10 µM,"[7]; Homo sapiens, 10-fold higher concentration (10 μM), 2 weeks incubation, then 1-week treatment",~20%
same,"efficacy, percent viability versus DMSO control","[7]; attack assay, 30-1000 nM",ineffective
same,size of the smaller cyst,primary huADPKD cells [4]; 6 days,quickly reduced in size
same,size of the large cyst,primary huADPKD cells [4]; week-long treatment,doubled in size but then decreased in size to a slightly reduced size
same,cyst expansion,primary huADPKD cells [5]; 10 and 30 micromolar,may have slowed cyst expansion
same,overt cell cytotoxicity,primary huADPKD cells [5],no overt cell cytotoxicity
same,effect on cyst appearance and expansion,primary huADPKD cells [5],little effect
same,solubility,[6],~30 µM
same,IC50,"primary huADPKD cells [8]; Homo sapiens, cyst prevention assays in 384-well plates, FIG. 24",> 10 µM
same,efficacy in cAMP stimulated assays,primary huADPKD cells [8]; cAMP stimulated,only slightly more effective
same,concentrations at which effective,"primary huADPKD cells [8]; cyst prevention assays, FIG. 23",only at mid-micromolar concentrations
same,"efficacy, percent viability versus DMSO control","primary huADPKD cells [8]; prevention assay, 30-1000 nM",ineffective
